Measured values from patent publication US8871753B2, “Macrocyclic compounds and their use as kinase inhibitors” (Incyte Corporation, priority 2008, dated 2014).
Structures can show the parent of a compound that is named as a salt. Where two headings read alike, the source gives them in different places.

Assays:
Assay type in all cases: biochemical
[1] = molecular target: T1, human JAK1 (a.a. 837-1142) (Homo sapiens, UniProt P23458); assay: In vitro JAK kinase assay (HTRF, phosphorylation of a biotinylated peptide), JAK1; details: read-out: JAK1 IC50
T1 construct: human JAK1 (a.a. 837-1142); His tag (N); made in house; host or cells: insect cells (baculovirus)
T1 sequence (P23458 849-1154): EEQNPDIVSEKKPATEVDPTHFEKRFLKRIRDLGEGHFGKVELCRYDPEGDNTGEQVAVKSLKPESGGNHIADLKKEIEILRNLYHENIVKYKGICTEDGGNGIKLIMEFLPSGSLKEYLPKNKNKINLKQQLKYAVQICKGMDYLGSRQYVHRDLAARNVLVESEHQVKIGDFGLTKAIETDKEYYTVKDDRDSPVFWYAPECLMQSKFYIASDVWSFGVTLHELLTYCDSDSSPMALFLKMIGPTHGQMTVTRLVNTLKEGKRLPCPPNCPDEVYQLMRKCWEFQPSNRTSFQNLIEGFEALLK
Summary of the method: (§1)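 Kinase activity was measured as phosphorylation of a biotinylated peptide, with ATP at 90 μM for JAK1, 30 μM for JAK2 and 3 μM for JAK3. Reactions ran 1 hr at room temperature, were stopped with EDTA plus SA-APC and Eu-Py20, and were read by HTRF after 40 minutes of antibody binding.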

[2] = molecular target: T2, human JAK2 (a.a. 828-1132) (Homo sapiens, UniProt O60674); assay: In vitro JAK kinase assay (HTRF, phosphorylation of a biotinylated peptide), JAK2
T2 construct: JAK2 (a.a. 828-1132); His tag (N); made in house; host or cells: insect cells (baculovirus)
T2 sequence (O60674 828-1132): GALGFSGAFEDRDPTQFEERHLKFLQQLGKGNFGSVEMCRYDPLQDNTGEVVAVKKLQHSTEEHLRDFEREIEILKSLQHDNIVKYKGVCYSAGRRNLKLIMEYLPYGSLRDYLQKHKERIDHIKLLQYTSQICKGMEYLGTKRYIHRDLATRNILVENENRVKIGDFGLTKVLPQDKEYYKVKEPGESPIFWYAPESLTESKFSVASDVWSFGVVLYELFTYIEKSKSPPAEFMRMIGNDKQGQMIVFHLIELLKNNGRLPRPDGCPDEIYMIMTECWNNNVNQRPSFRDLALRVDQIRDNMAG
Summary of the method: as §1

[3] = molecular target: T3, human JAK3 (a.a. 781-1124) (Homo sapiens, UniProt P52333); assay: In vitro JAK kinase assay (HTRF, phosphorylation of a biotinylated peptide), JAK3
T3 construct: JAK3 (a.a. 781-1124); His tag (N); made in house; host or cells: insect cells (baculovirus)
T3 sequence (P52333 781-1124): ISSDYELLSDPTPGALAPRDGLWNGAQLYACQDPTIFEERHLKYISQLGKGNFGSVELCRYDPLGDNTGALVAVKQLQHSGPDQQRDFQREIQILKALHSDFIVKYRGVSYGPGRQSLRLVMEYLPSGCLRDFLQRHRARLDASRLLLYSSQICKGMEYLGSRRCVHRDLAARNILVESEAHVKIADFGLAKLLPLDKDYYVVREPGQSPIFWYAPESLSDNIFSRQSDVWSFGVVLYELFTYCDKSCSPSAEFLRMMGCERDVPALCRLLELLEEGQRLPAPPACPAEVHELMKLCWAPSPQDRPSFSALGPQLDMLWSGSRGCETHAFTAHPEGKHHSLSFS
Summary of the method: as §1

TYK2 = TYK2 (Homo sapiens, UniProt P29597); assay: TYK2 kinase inhibition (Table A1)
Chain of TYK2 (P29597 whole entry): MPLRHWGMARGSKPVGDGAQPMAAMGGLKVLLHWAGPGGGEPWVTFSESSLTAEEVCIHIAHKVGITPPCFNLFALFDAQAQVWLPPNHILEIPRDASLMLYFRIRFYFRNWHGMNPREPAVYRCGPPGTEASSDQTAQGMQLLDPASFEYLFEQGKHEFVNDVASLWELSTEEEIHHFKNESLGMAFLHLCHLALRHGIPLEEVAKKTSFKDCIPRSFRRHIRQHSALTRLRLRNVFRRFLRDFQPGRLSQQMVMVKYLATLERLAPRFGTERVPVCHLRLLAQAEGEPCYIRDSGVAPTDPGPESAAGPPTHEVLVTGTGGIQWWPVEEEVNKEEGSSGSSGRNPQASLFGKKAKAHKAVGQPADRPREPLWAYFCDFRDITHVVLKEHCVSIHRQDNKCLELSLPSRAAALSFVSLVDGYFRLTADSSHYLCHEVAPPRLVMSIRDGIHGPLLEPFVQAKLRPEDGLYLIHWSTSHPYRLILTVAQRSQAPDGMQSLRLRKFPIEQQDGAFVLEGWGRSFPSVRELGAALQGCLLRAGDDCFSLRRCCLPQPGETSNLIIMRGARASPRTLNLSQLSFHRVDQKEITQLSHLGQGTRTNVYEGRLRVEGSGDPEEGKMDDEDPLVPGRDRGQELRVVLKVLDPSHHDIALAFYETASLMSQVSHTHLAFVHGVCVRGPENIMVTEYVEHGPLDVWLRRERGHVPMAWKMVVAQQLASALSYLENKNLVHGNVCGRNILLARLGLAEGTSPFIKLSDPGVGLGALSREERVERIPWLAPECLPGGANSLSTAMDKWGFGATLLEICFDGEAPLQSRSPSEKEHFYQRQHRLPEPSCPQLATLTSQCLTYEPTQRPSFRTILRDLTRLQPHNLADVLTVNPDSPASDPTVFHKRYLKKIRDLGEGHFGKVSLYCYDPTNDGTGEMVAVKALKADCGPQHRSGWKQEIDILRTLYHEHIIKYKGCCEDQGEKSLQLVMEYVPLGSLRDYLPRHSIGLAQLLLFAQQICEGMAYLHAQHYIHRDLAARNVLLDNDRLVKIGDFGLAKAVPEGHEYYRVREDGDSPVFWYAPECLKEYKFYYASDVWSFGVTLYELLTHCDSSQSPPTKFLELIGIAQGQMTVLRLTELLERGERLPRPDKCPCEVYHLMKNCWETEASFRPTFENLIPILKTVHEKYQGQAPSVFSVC

[4] = molecular target: T4, Recombinant Human Anaplastic Lymphoma Kinase (Homo sapiens, UniProt Q9UM73); assay: ALK HTRF kinase assay
T4 construct: purchased Invitrogen, Carlsbad, Calif
T4 sequence (Q9UM73 19-1620): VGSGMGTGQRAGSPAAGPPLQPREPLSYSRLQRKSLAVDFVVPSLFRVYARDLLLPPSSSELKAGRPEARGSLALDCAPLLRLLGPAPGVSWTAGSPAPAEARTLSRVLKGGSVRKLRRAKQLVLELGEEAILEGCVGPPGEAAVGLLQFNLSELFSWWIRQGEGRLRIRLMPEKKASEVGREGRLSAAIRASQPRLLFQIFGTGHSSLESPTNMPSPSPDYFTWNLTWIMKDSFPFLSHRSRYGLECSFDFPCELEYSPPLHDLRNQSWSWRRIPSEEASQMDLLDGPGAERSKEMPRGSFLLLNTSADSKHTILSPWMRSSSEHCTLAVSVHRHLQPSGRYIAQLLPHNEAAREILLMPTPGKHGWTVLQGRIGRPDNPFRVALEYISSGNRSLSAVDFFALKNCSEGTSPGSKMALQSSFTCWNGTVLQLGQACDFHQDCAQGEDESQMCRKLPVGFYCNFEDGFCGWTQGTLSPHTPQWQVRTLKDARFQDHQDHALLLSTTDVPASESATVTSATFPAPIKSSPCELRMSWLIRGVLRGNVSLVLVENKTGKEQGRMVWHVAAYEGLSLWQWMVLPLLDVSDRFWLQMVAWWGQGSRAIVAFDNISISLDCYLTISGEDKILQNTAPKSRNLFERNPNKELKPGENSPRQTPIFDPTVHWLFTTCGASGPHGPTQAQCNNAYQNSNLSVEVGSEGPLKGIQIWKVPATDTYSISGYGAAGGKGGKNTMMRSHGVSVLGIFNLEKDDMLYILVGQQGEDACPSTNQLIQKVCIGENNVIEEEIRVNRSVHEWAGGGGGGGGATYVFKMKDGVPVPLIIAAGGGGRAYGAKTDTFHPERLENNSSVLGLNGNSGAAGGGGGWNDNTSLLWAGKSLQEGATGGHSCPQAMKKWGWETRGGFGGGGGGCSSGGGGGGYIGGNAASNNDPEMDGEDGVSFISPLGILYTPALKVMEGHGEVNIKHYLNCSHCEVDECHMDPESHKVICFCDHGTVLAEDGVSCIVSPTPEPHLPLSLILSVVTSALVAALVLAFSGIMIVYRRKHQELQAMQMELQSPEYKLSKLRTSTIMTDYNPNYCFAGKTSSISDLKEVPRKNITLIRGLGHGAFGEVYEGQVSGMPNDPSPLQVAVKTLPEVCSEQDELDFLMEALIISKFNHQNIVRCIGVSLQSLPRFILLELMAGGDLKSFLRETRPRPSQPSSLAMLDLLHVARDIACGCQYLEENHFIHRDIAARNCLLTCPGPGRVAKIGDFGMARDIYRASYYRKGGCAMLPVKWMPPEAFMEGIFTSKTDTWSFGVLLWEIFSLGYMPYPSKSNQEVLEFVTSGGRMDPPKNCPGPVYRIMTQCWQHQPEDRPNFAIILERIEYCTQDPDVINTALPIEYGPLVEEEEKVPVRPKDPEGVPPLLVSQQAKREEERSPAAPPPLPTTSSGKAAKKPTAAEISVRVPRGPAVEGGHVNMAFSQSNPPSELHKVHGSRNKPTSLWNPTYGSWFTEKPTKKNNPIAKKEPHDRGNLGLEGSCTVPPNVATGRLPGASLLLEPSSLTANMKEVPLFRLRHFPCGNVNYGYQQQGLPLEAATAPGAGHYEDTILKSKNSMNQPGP
Summary of the method: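 Biotinylated peptide substrate, recombinant human ALK; detection via europium-chelate antibody to phosphotyrosine paired with streptavidin-APC. Potency expressed as IC50 from four-parameter curve fitting.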

[5] = method AA1 (90 μM ATP) or AA2 (1000 μM ATP), not stated per value
[6] = method AA1 (30 μM ATP) or AA2 (1000 μM ATP), not stated per value
[7] = method AA1 (3 μM ATP) or AA2 (1000 μM ATP), not stated per value
[8] = compound at 500 nM or 1 mM, 90 μM ATP
[9] = percentage inhibition of the example compound at a concentration of 500 nM or 1 mM (not specified which)
[10] = compound at a concentration of 500 nM or 1 mM (not specified), cells shown as percentage
[11] = Table B1, cells without percent sign

Work on `O=C(CC1CCN(S(=O)(=O)c2cccnc2)CC1)Nc1ccc2cc1CCc1cccc(c1)Nc1ncc(Cl)c(n1)N2` [Example A212, N-[6-Chloro-2,4,8,22-tetraazatetracyclo[14.3.1.1(3,7).1(9,13)]docosa-1(20),3(22),4,6,9(21),10,12,16,18-nonaen-12-yl]-2-[1-(pyridin-3-ylsulfonyl)piperidin-4-yl]acetamide bis(trifluoroacetate)] yielded an IC50 [1, 5] of 1.3 nM, an IC50 [2, 6] of 8.6 nM and an IC50 [3, 7] of over 200 nM. For the same molecule, the IC50 (TYK2) was 85 nM and the “ALK % of inhibition at a concentration of 500 nM or 1 mM” value (“ALK % of inhibition” for short) [4, 8] was 45%.

With `N#CC1(c2ccccc2)CCN(C(=O)Nc2ccc3cc2CCc2cncc(c2)Nc2ncc(Cl)c(n2)N3)CC1` [Example B322, N-[6-Chloro-2,4,8,18,22-pentaazatetracyclo[14.3.1.1(3,7).1(9,13)]docosa-1(20),3(22),4,6,9(21),10,12,16,18-nonaen-12-yl]-4-cyano-4-phenylpiperidine-1-carboxamide bis(trifluoroacetate)] the IC50 ([1]; Table B1) was 32 nM, the IC50 ([2]; Table B1) was 313 nM and the IC50 ([3]; Table B1) was over 400 nM. For the same molecule, the IC50 (TYK2; Table B1) was 160 nM and the “ALK % of inhibition” value [4, 9] was 74%.

`COc1ccc(S(=O)(=O)Nc2ccc3cc2CCc2cccc(c2)Nc2ncc(Cl)c(n2)N3)cc1` [Example B156, N-[6-Chloro-2,4,8,22-tetraazatetracyclo[14.3.1.1(3,7).1(9,13)]docosa-1(20), 3(22),4,6,9(21),10,12,16,18-nonaen-12-yl]-4-methoxybenzenesulfonamide trifluoroacetate] showed an IC50 ([1]; Table B1) of 0.75 nM, an IC50 ([2]; Table B1) of 1.5 nM and an IC50 ([3]; Table B1) of 17 nM. The IC50 (TYK2; Table B1) was 2.7 nM and the “ALK % of inhibition” value [4, 10] was 28%.

In the case of `Clc1cnc2nc1Nc1cccc(c1)OCc1cccc(c1)N2` [Example D7, 6-Chloro-14-oxa-2,4,8,22-tetraazatetracyclo[14.3.1.1(3,7).1(9,13)]docosa-1(20),3(22),4,6,9(21),10,12,16,18-nonaene trifluoroacetate], the IC50 ([1]; Table D1) is reported as 100 nM, the IC50 ([2]; Table D1) is reported as 61 nM and the IC50 ([3]; Table D1) is reported as over 100 nM. The IC50 (TYK2; Table D1) was over 100 nM and the IC50 ([4]; Table D1, 90 μM ATP) was over 10000 nM.

`O=C(Nc1cccc(Cl)c1)c1cc2cc(c1)Nc1nc(ncc1Cl)Nc1cccc(c1)CC2` [Example B13, 6-Chloro-N-(3-chlorophenyl)-2,4,8,22-tetraazatetracyclo[14.3.1.1(3,7).1(9,13)]docosa-1(20),3(22),4,6,9(21),10,12,16,18-nonaene-11-carboxamide trifluoroacetate] gave an IC50 ([1]; Table B1) of 900 nM, an IC50 ([2]; Table B1) of 171 nM and an IC50 ([3]; Table B1) of 682 nM. It also gave an IC50 (TYK2; Table B1) of over 1000 nM and an IC50 [4, 11] of over 1000 nM.

For `O=C(Nc1ccc2cc1CCc1cccc(c1)Nc1ncc(Cl)c(n1)N2)NC1CCNCC1` [Example B181, N-[6-Chloro-2,4,8,22-tetraazatetracyclo[14.3.1.1(3,7).1(9,13)]docosa-1(20),3(22),4,6,9(21),10,12,16,18-nonaen-12-yl]-N′-piperidin-4-ylurea dihydrochloride], the IC50 ([1]; Table B1) was 70 nM, the IC50 ([2]; Table B1) was 177 nM and the IC50 ([3]; Table B1) was 236 nM. The IC50 (TYK2; Table B1) was 226 nM and the “ALK % of inhibition” value [4, 10] was 3.7%.

`Cc1nc(S(=O)(=O)N2CCC(CN(C)Cc3ccc4cc3CCc3cncc(c3)Nc3ncc(Cl)c(n3)N4)CC2)cn1C` [Example B343, 1-[6-Chloro-2,4,8,18,22-pentaazatetracyclo[14.3.1.1(3,7).1(9,13)]docosa-1(20),3(22),4,6,9(21),10,12,16,18-nonaen-12-yl]-N-({1-[(1,2-dimethyl-1H-imidazol-4-yl)sulfonyl]piperidin-4-yl}methyl)-N-methylmethanamine tris(trifluoroacetate)] showed an IC50 ([1]; Table B1) of 3.8 nM, an IC50 ([2]; Table B1) of 130 nM and an IC50 ([3]; Table B1) of over 400 nM. For the same molecule, the IC50 (TYK2; Table B1) was 180 nM and the “ALK % of inhibition” value [4, 9] was 42%.

With `Cc1cc(C(=O)N2CCCC(C(=O)Nc3ccc4cc3CCc3cccc(c3)Nc3ncc(Cl)c(n3)N4)C2)no1` (stereo not shown) [Example A121, N-[6-Chloro-2,4,8,22-tetraazatetracyclo[14.3.1.1(3,7).1(9,13)]docosa-1(20),3(22),4,6,9(21),10,12,16,18-nonaen-12-yl]-1-[(5-methylisoxazol-3-yl)carbonyl]piperidine-3-carboxamide trifluoroacetate] the IC50 [1, 5] was 14 nM, the IC50 [2, 6] was 4.2 nM and the IC50 [3, 7] was 11 nM. For the same molecule, the IC50 (TYK2) was 14 nM and the “ALK % of inhibition” value [4, 8] was 41%.

In the case of `Cc1nc(S(=O)(=O)N2CCC(CC(=O)Nc3ccc4cc3CCc3cncc(c3)Nc3ncc(Cl)c(n3)N4)CC2)cn1C` [Example A230, N-[6-Chloro-2,4,8,18,22-pentaazatetracyclo[14.3.1.1(3,7).1(9,13)]docosa-1(20),3(22),4,6,9(21),10,12,16,18-nonaen-12-yl]-2-{1-[(1,2-dimethyl-1H-imidazol-4-yl)sulfonyl]piperidin-4-yl}acetamide bis(trifluoroacetate)], the IC50 [1, 5] is reported as 15 nM, the IC50 [2, 6] is reported as 130 nM and the IC50 [3, 7] is reported as over 400 nM. The IC50 (TYK2) was 255 nM and the “ALK % of inhibition” value [4, 8] was 50%.

`Cc1ccnc(Nc2ccc3cc2CCc2cccc(c2)Nc2ncc(Cl)c(n2)N3)n1` [Example B276, 6-Chloro-N-(4-methylpyrimidin-2-yl)-2,4,8,22-tetraazatetracyclo[14.3.1.1(3,7).1(9,13)]docosa-1(20),3(22),4,6,9(21),10,12,16,18-nonaen-12-amine bis(trifluoroacetate)] was tested, and the IC50 ([1]; Table B1) was 6.5 nM, the IC50 ([2]; Table B1) was 11 nM and the IC50 ([3]; Table B1) was 1170 nM. The IC50 (TYK2; Table B1) was 34 nM and the “ALK % of inhibition” value [4, 10] was 22%.

In the case of `O=C(Nc1ccc2cc1CCc1cccc(c1)Nc1ncc(Cl)c(n1)N2)c1cnccn1` [Example B44, N-[6-Chloro-2,4,8,22-tetraazatetracyclo[14.3.1.1(3,7).1(9,13)]docosa-1(20), 3(22),4,6,9(21),10,12,16,18-nonaen-12-yl]pyrazine-2-carboxamide bis(trifluoroacetate)], the IC50 ([1]; Table B1) is reported as 13 nM, the IC50 ([2]; Table B1) is reported as 2.9 nM and the IC50 ([3]; Table B1) is reported as 48 nM. For the same molecule, the IC50 (TYK2; Table B1) was 22 nM and the IC50 [4, 11] was 300 nM.

In the case of `N#Cc1cccc(S(=O)(=O)Nc2ccc3cc2CCc2cccc(c2)Nc2ncc(Cl)c(n2)N3)c1` [Example B153, N-[6-Chloro-2,4,8,22-tetraazatetracyclo[14.3.1.1(3,7).1(9,13)]docosa-1(20),3(22),4,6,9(21),10,12,16,18-nonaen-12-yl]-3-cyanobenzenesulfonamide trifluoroacetate], the IC50 ([1]; Table B1) is reported as 0.69 nM, the IC50 ([2]; Table B1) is reported as 0.1 nM and the IC50 ([3]; Table B1) is reported as 0.48 nM. It also gave an IC50 (TYK2; Table B1) of 0.44 nM and an IC50 [4, 11] of 70 nM.

`OCc1ccc2cc1CCc1cccc(c1)Nc1ncc(Cl)c(n1)N2` [Example B23, [6-Chloro-2,4,8,22-tetraazatetracyclo[14.3.1.1(3,7).1(9,13)]docosa-1(20),3(22),4,6,9(21),10,12,16,18-nonaen-12-yl]methanol trifluoroacetate] was tested, and the IC50 ([1]; Table B1) was 0.2 nM, the IC50 ([2]; Table B1) was 0.8 nM and the IC50 ([3]; Table B1) was 1.2 nM. The IC50 (TYK2; Table B1) was 1.8 nM and the “ALK % of inhibition” value [4, 10] was 75%.

In the case of `Cc1cnc(NC(=O)Nc2ccc3cc2CCc2cccc(c2)Nc2ncc(Cl)c(n2)N3)s1` [Example B248, N-[6-Chloro-2,4,8,22-tetraazatetracyclo[14.3.1.1(3,7).1(9,13)]docosa-1(20),3(22),4,6,9(21),10,12,16,18-nonaen-12-yl]-N′-(5-methyl-1,3-thiazol-2-yl)urea trifluoroacetate], the IC50 ([1]; Table B1) is reported as 77 nM, the IC50 ([2]; Table B1) is reported as 171 nM and the IC50 ([3]; Table B1) is reported as 46 nM. The IC50 (TYK2; Table B1) was 25 nM and the “ALK % of inhibition” value [4, 10] was 32%.

Molecule `Cc1noc(C)c1C(=O)N1CC[C@H](NC(=O)Nc2ccc3cc2CCc2cncc(c2)Nc2ncc(Cl)c(n2)N3)C1` [Example B274, N-[6-chloro-2,4,8,18,22-pentaazatetracyclo[14.3.1.1(3,7).1(9,13)]docosa-1(20),3(22),4,6,9(21),10,12,16,18-nonaen-12-yl]-N′-{(3S)-1-[(3,5-dimethylisoxazol-4-yl)carbonyl]pyrrolidin-3-yl}urea bis(trifluoroacetate)] has an IC50 ([1]; Table B1) of 60 nM, an IC50 ([2]; Table B1) of 192 nM and an IC50 ([3]; Table B1) of over 10000 nM. For the same molecule, the IC50 (TYK2; Table B1) was 325 nM and the “ALK % of inhibition” value [4, 10] was 18%.

With `CC(C)(C)NS(=O)(=O)c1cc2cc(c1)Nc1nc(ncc1Cl)Nc1cccc(c1)CC2` [Example B16, N-(tert-Butyl)-6-chloro-2,4,8,22-tetraazatetracyclo[14.3.1.1(3,7).1(9,13)]docosa-1(20),3(22),4,6,9(21),10,12,16,18-nonaene-11-sulfonamide trifluoroacetate] the IC50 ([1]; Table B1) was 52 nM, the IC50 ([2]; Table B1) was 7.5 nM and the IC50 ([3]; Table B1) was 182 nM. It also gave an IC50 (TYK2; Table B1) of 206 nM and an IC50 [4, 11] of over 10000 nM.

Molecule `CCCc1ccccc1NC(=O)Nc1ccc2cc1CCc1cccc(c1)Nc1ncc(Cl)c(n1)N2` [Example B105, N-[6-Chloro-2,4,8,22-tetraazatetracyclo[14.3.1.1(3,7).1(9,13)]docosa-1(20), 3(22),4,6,9(21),10,12,16,18-nonaen-12-yl]-N′-(2-propylphenyl)urea trifluoroacetate] has an IC50 ([1]; Table B1) of 3.9 nM, an IC50 ([2]; Table B1) of 10 nM and an IC50 ([3]; Table B1) of 43 nM. The IC50 (TYK2; Table B1) was 13 nM and the “ALK % of inhibition” value [4, 10] was 52%.
